Format in all cases: functional, organism-based
The subject of test [1] is Leishmania donovani. As to the kind of experiment: Antileishmanial activity against Leishmania donovani promastigotes after 72 hr by alamar blue assay. On the technique in general: The colour change of resazurin is a common sign of viable cells or microbes.
Test [2] has as its system Plasmodium falciparum. Nature of the test: Antimalarial activity against chloroquine-resistant Plasmodium falciparum W2 IndoChina after 48 hr by parasite LDH assay.
Test [3] relates to Plasmodium falciparum. As to the kind of experiment: Antimalarial activity against chloroquine-sensitive Plasmodium falciparum D6 SierraLeone after 48 hr by parasite LDH assay.

Structures are written as SMILES. pEC50: −log10 of the molar value.

These results are taken from ChEMBL document CHEMBL3046338, “Solid-Supported Parallel Synthesis of Hydroxybenzylamine Libraries Possessing Antileishmial Activity” (Med Chem Res, 2005).

For `COc1ccc(CN(CCc2ccc(Br)cc2)Cc2ccc(F)cc2)cc1O`, the pEC50 (commonly the EC50 on a negative log10 scale, so that one unit is a factor of ten) in test [1] was 4.25.
The same measure, in the same setting: next, `COc1ccc(CN(CCCc2ccccc2)CCc2c[nH]c3ccccc23)cc1O`: 5.00.
Still for that read-out and setting: next, `COc1ccc(N(Cc2ccc(Cl)cc2)Cc2ccc(OC)c(O)c2)cc1`: 4.22; `CCOC(=O)CCCN(CCc1ccccc1)Cc1ccc(OC)c(O)c1`: 4.59; `COc1ccc(CN(CCc2c[nH]c3ccccc23)Cc2ccccc2)cc1O`: 5.03.
Same read-out and setting: next, `COc1ccc(CN(CCc2ccccc2)c2cccnc2)cc1O`: 4.73.
`COc1ccc(CN(CCc2ccccc2)Cc2ccccc2)cc1O` had a negative-log EC50 (pEC50) in test [1] of 4.43.
Regarding `COc1ccc(CN(CCc2ccc(OC)c(OC)c2)Cc2ccc(Br)cc2)cc1O`, the figures for the pEC50 in test [2] and in test [1] were 5.01 and 4.41, respectively.
As for `COc1ccc(N(Cc2ccc(C)cc2)Cc2ccc(OC)c(O)c2)cc1`, in test [1], the pEC50 was 4.19.
The same measure, in the same setting: next, `COc1ccc(CN(CCc2ccc(Br)cc2)Cc2ccc(C(C)(C)C)cc2)cc1O`: 4.32; `COc1ccc(CN(Cc2ccccc2)c2cccnc2)cc1O`: 4.28.
`COc1ccc(CN(CCc2ccccc2)Cc2ccc(OC)c(O)c2)cc1`: in test [1], the negative logarithm of the EC50 (pEC50) is 4.73.
The same measure, in the same setting: next, `COc1ccc(CN(CCc2ccccc2)CCc2ccccc2)cc1O`: 4.68.
With `COc1ccc(CCN(Cc2ccccc2)Cc2ccc(OC)c(O)c2)cc1`, the pEC50 was 4.90 in test [2], 4.90 in test [3] and 4.30 in test [1].
With `COc1ccc(CN(CCc2ccc(Br)cc2)Cc2ccc(Cl)cc2Cl)cc1O`, the pEC50 in test [1] is 4.31.
Turning to `COc1ccc(CN(CCc2ccccc2)CCc2ccc(Br)cc2)cc1O`, the pEC50 in test [1] was 4.23.
In test [1], `COc1ccc(N(Cc2ccc(F)cc2)Cc2ccc(OC)c(O)c2)cc1` had a pEC50 of 4.07.
Take `COc1ccc(CCN(Cc2ccc(Br)cc2)Cc2ccc(OC)c(O)c2)cc1`: the pEC50 in test [2] is 4.98; in test [1] it was 4.66.
For `N=C(N)c1ccc(OCCCCCOc2ccc(C(=N)N)cc2)cc1` [PENTAMIDINE], the pEC50 in test [1] was 5.87.
On the same count and under the same terms, next, `COc1ccc(CN(CCc2ccc(Br)cc2)Cc2cccc(Cl)c2)cc1O`: 4.34.
On the same count and under the same terms, next, `COc1ccc(CN(CCCc2ccccc2)CCc2ccc(Br)cc2)cc1O`: 4.54; `C[C@@H]1[C@H](O)[C@@H](C)/C=C/C=C/C=C/C=C/C=C/C=C/C=C/[C@H](O[C@@H]2O[C@H](C)[C@@H](O)[C@H](N)[C@@H]2O)C[C@@H]2O[C@](O)(C[C@@H](O)C[C@@H](O)[C@H](O)CC[C@@H](O)C[C@@H](O)CC(=O)O[C@H]1C)C[C@H](O)[C@H]2C(=O)O` [AMPHOTERICIN B]: 8.00; `COc1ccc(CN(CCc2ccccc2)CC(=O)OC(C)(C)C)cc1O`: 4.47.
On the same count and under the same terms, next, `COc1ccc(CN(Cc2ccc(Br)cc2)c2cccc(Cl)c2)cc1O`: 4.19.
Turning to `COc1ccc(CN(Cc2ccc(Br)cc2)c2cccnc2)cc1O`, the negative logarithm of the EC50 (pEC50) in test [1] is 4.49. This pEC50 lies 0.30 log units higher than the previous one.
On to `COc1ccc(CN(CCc2ccc(Br)cc2)Cc2ccccc2)cc1O`, for which the figures for the negative-log EC50 (pEC50) in test [2], in test [3] and in test [1] were 4.95, 5.18 and 4.93, respectively.
Take `COc1ccc(CN(CCc2ccc(Br)cc2)Cc2ccc(Br)cc2)cc1O`: the pEC50 in test [2] is 5.03; in test [3] it was 5.16; in test [1], 4.93.
On the same counts, the results for `COc1ccc(CN(Cc2ccccc2)c2cccc(Cl)c2)cc1O` are 4.87, 4.87 and 4.40.
Consider `COc1ccc(CN(CCCN2CCOCC2)Cc2ccccc2)cc1O`, for which the negative logarithm of the EC50 (pEC50) in test [2] and in test [3] was 4.89 in each case.
`COc1ccc(CN(CCc2ccccc2)Cc2c(F)c(F)c(F)c(F)c2F)cc1O` gave a negative-log EC50 (pEC50) in test [1] of 4.32.
Still for that read-out and setting: next, `COc1ccc(CN(CCc2ccccc2)Cc2ccc(Cl)c(Cl)c2)cc1O`: 4.30; `COc1ccc(CN(CCc2ccccc2)Cc2ccc(Cl)cc2)cc1O`: 4.17; `COc1ccc(CN(Cc2ccc(OC)c(O)c2)c2ccc(OC)cc2)cc1`: 4.15.
The same measure, in the same setting: next, `COc1ccc(CN(Cc2ccc(Br)cc2)c2cc(OC)c(OC)c(OC)c2)cc1O`: 4.35; `CCOC(=O)CCCN(CCc1ccc(Br)cc1)Cc1ccc(OC)c(O)c1`: 4.42.
The same measure, in the same setting: next, `COc1ccc(CN(CCc2ccc(Br)cc2)CC(=O)OC(C)(C)C)cc1O`: 4.95; `COc1ccc(CN(CCc2ccccc2)Cc2ccc(C(C)(C)C)cc2)cc1O`: 4.73.
Consider `COc1ccc(N(Cc2ccc(C(C)(C)C)cc2)Cc2ccc(OC)c(O)c2)cc1`, for which, in test [1], the negative logarithm of the EC50 (pEC50) was 4.21. This pEC50 lies 0.52 log units lower than the previous one.
The same measure, in the same setting: next, `COc1ccc(CN(CCc2ccccc2)Cc2ccc(F)cc2)cc1O`: 4.20.
Same read-out and setting: next, `CCOC(=O)CCN(CCc1ccc(Br)cc1)Cc1ccc(OC)c(O)c1`: 4.60.
As to `COc1ccc(CN(CCCN2CCOCC2)Cc2ccc(Br)cc2)cc1O`, the pEC50 in test [2] was 4.98; in test [3] it was 4.98; in test [1] it was 4.29.
On to `COc1ccc(CN(CCc2ccc(OC)c(OC)c2)Cc2ccccc2)cc1O`, for which the pEC50 in test [2] was 4.93; in test [1], 4.27.
`COc1ccc(CN(CCc2ccccc2)Cc2ccc(C)cc2)cc1O` showed a negative logarithm of the EC50 (pEC50) in test [1] of 4.70.
On the same count and under the same terms, next, `CCOC(=O)CN(CCc1ccc(Br)cc1)Cc1ccc(OC)c(O)c1`: 4.58.
As to `COc1ccc(CN(CCc2ccc(Br)cc2)Cc2ccc(Cl)cc2)cc1O`, in test [1], the negative-log EC50 (pEC50) is 4.27.
Regarding `COc1ccc(N(Cc2ccc(Br)cc2)Cc2ccc(OC)c(O)c2)cc1`, the pEC50 in test [2] is 4.95; in test [3], 4.95; in test [1], 4.59.
`COc1ccc(CN(Cc2ccccc2)Cc2ccc(Br)cc2)cc1O`: in test [1], the pEC50 is 4.50.
Consider `CCCCN(CCc1ccc(Br)cc1)Cc1ccc(OC)c(O)c1`, for which the pEC50 in test [2] was 5.15; in test [1], 3.90.
As to `COc1ccc(CN(CCc2ccc(Br)cc2)Cc2c(F)c(F)c(F)c(F)c2F)cc1O`, the negative logarithm of the EC50 (pEC50) in test [1] is 4.30.
On the same count and under the same terms, next, `COc1ccc(CN(CCc2ccccc2)CCc2c[nH]c3ccccc23)cc1O`: 4.79.
Same read-out and setting: next, `COc1ccc(CN(CCCc2ccccc2)CCc2ccccc2)cc1O`: 4.85; `COc1ccc(N(Cc2ccccc2)Cc2ccc(OC)c(O)c2)cc1`: 3.96.
`CCN(CC)CCCC(C)Nc1ccnc2cc(Cl)ccc12` (centres undefined) [CHLOROQUINE] gave a negative logarithm of the EC50 (pEC50) in test [2] of 6.51.
In test [1], `COc1ccc(CN(CCc2ccc(Br)cc2)Cc2ccc(C)cc2)cc1O` had a negative logarithm of the EC50 (pEC50) of 4.53.
Still for that read-out and setting: next, `COc1ccc(CN(CCc2c[nH]c3ccccc23)Cc2ccc(Br)cc2)cc1O`: 5.01; `COc1ccc(CN(CCc2ccc(Br)cc2)Cc2ccc(OC)c(O)c2)cc1`: 4.48; `COc1ccc(CN(Cc2ccccc2)c2cc(OC)c(OC)c(OC)c2)cc1O`: 4.53.
For `COc1ccc(CN(Cc2ccccc2)c2ccc(Br)cc2)cc1O`, in test [1], the pEC50 is 4.15.
In the case of `COc1ccc(CN(CCc2ccc(Br)cc2)Cc2ccc([N+](=O)[O-])cc2)cc1O`, the pEC50 in test [3] was 5.02; in test [1], 4.33.
Take `COc1ccc(CN(CCCc2ccccc2)c2cccnc2)cc1O`: in test [1], the pEC50 was 4.80.
The same measure, in the same setting: next, `COc1ccc(CN(CCc2ccccc2)Cc2ccc(Cl)cc2Cl)cc1O`: 4.22.
On the same count and under the same terms, next, `COc1ccc(CN(CCc2ccc(Br)cc2)Cc2ccc(Cl)c(Cl)c2)cc1O`: 4.31; `COc1ccc(CN(Cc2ccc(Br)cc2)c2ccc(Br)cc2)cc1O`: 4.47.
Regarding `C[C@@H]1CC[C@H]2[C@@H](C)C(=O)O[C@@H]3O[C@@]4(C)CC[C@@H]1[C@]32OO4` [ARTEMISININ], the negative-log EC50 (pEC50) in test [2] and in test [3] was 7.70 in each case.
On to `COc1ccc(CN(CCc2ccccc2)Cc2cccc(Cl)c2)cc1O`, for which the pEC50 in test [1] was 4.15.
